Laboratory results published in patent US20260263623A1, “STAPLED PEPTIDE-ANTIBODY CONJUGATES (SPACS) AND USES THEREOF” (priority 2021, published 2026).

Tests used:
[1] = tested on: HER2+++ p53 mut breast cancer cell line (SK-BR-3); assay: 72 hour cytotoxicity assay (CellTiter-Glo), SK-BR-3; assay type: cell-based; conditions: SK-BR-3, highly expresses HER2, mutated p53 (insensitive to MDM2 inhibition); FIG. 6B
Procedure: (§1) Cell culture: Cell lines were maintained in appropriate medium supplemented with fetal bovine serum to a final concentration of 10%.
(§2) 72 hour cytotoxicity assay: Cells were plated in a 96-well format, and after 24 hour incubation, serial dilutions of SPACs from a 1 mg/mL stock, or vehicle, were then added to the cells in a final volume of 100 μl. After incubating at 37° C. for 72 hours, 100 μl of CellTiter-Glo® reagent was added to the cells, and the plates were incubated 15 minutes at room temperature. Luminescence was then measured on a microplate reader.

[2] = tested on: MCF7 cell line with low HER2 expression (HER2+), p53 WT; assay: 72 hour cytotoxicity assay (CellTiter-Glo), MCF7; assay type: cell-based; conditions: wild-type p53 (sensitive to MDM2 inhibition), FIG. 6A
Procedure: as §1, §2

Trastuzumab emtansine was tested, and the “activity (efficacy vs concentration)” value [1] was “shows efficacy at relatively low concentration” and the anti-proliferative activity [2] was “no activity”.
